Here are results for eight compounds from ChEMBL document CHEMBL4196231, “Peptidomimetics for Targeting Protein-Protein Interactions between DOT1L and MLL Oncofusion Proteins AF9 and ENL” (ACS Med Chem Lett, 2018).

Square brackets hold non-standard residues; d marks the D form. Peptide text beside a SMILES is read from it. * marks the point of attachment. Biotinyl(3aR,4S,6aS) = O=C1N[C@H]2[C@H](CCCCC(=O)*)SC[C@H]2N1; X3 = c1ccc(-c2cn(CC3CCCCC3)c([C@@H]3CCCN3*)n2)cc1; Ala(cPent) = N[C@@H](CC1CCCC1)C(=O)O; Ala(cPr) = N[C@@H](CC1CC1)C(=O)O; Pentanoyl(4-Me) = CC(C)CCC(=O)*; Cba = N[C@@H](CC1CCC1)C(=O)O; Dap = NC[C@H](N)C(=O)O; Bz = O=C(c1ccccc1)*; Ahx = NCCCCCC(=O)O

The target of experiment [1] is T1, Protein AF-9 (Homo sapiens, UniProt P42568).
T1 sequence (P42568 whole entry): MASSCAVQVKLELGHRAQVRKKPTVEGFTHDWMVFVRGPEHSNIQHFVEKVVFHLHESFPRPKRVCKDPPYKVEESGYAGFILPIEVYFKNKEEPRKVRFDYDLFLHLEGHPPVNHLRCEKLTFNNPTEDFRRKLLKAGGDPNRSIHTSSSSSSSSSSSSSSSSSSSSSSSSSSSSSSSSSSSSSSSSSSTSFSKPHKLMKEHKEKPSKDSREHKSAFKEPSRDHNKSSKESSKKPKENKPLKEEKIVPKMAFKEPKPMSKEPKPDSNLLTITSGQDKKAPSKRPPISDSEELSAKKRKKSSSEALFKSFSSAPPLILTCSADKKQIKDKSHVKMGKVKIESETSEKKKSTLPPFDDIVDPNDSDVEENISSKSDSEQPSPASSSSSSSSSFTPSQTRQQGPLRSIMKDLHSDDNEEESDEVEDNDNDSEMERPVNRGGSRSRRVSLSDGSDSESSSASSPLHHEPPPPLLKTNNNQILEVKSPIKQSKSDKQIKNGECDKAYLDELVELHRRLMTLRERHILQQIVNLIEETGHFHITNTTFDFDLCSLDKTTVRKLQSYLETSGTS
Put plainly: Displacement of N-Flu-DOT1L from MBP-tagged AF9 (unknown origin) (487 to 568 residues) expressed in Escherichia coli BL21(DE3) measured after 3 hrs by fluorescence polarization assay. (In fluorescence polarisation assays a small probe gives low polarisation when free and higher when bound to something large.)

Experiment [2] addresses T2, Protein ENL (Homo sapiens, UniProt Q03111).
T2 sequence (Q03111 whole entry): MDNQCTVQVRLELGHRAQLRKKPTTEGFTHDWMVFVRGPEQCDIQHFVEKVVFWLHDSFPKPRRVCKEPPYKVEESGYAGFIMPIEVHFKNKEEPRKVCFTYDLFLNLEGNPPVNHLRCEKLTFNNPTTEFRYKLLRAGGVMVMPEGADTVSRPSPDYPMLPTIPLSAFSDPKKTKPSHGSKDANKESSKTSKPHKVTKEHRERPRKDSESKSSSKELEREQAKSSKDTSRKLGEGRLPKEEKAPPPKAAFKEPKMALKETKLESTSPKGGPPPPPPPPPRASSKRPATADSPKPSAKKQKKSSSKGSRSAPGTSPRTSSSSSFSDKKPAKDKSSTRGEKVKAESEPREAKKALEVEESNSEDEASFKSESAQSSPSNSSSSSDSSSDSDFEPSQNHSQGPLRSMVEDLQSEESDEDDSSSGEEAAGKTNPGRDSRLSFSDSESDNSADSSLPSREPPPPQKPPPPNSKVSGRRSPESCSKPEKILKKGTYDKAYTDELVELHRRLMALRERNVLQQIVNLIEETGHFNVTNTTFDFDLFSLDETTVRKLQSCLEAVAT
Put plainly: Displacement of N-Flu-DOT1L from MBP-tagged ENL (unknown origin) (489 to 559 residues) expressed in Escherichia coli BL21(DE3) measured after 3 hrs by fluorescence polarization assay.

The target in experiment [3] is T2, Protein ENL. Put plainly: Binding affinity to MBP-tagged ENL (unknown origin) (489 to 559 residues) expressed in Escherichia coli BL21(DE3) by Bio-layer interferometry. On the technique in general: In BLI a coated tip is dipped into the sample, and binding shifts an interference pattern.
Experiment [4] concerns the target T1, Protein AF-9. As to the kind of experiment: Binding affinity to MBP-tagged AF9 (unknown origin) (487 to 568 residues) expressed in Escherichia coli BL21(DE3) by Bio-layer interferometry.

With `CC[C@H](C)[C@H](NC(=O)[C@H](CO)NC(=O)[C@H](CC1CC1)NC(=O)[C@@H]1CCCN1C(=O)[C@H](CC(C)C)NC(C)=O)C(=O)N1CCC[C@H]1C(=O)N[C@@H](CC(C)C)C(=O)N(C)C` (Ac-LP[Ala(cPr)]SIPL-NMe2), on Protein AF-9 [1], the IC50 came to 4290 nM and the Ki was determined as 780 nM. At Protein ENL [2], this compound registered a half-inhibitory concentration (IC50) of 14600 nM and a Ki of 4890 nM.
`CC[C@H](C)[C@H](NC(=O)[C@H](CO)NC(=O)[C@H](CC1CCC1)NC(=O)[C@@H]1CCCN1C(=O)[C@H](CC(C)C)NC(C)=O)C(=O)N1CCC[C@H]1C(=O)N[C@@H](CC(C)C)C(=O)N(C)C` (Ac-LP[Cba]SIPL-NMe2): the IC50 on Protein AF-9 [1] was 7230 nM; on Protein ENL [2] it was 23600 nM. Also, the Ki on Protein AF-9 [1] was 1310 nM; on Protein ENL [2], 8040 nM.
On Protein AF-9 [1], `CC(C)[C@H](NC(=O)[C@@H]1CCCN1C(=O)c1ccccc1)C(=O)N[C@@H](CN)C(=O)N[C@@H](CC1CCCC1)C(=O)N1CCC[C@H]1c1nc(-c2ccccc2)cn1CC1CCCCC1` (Bz-PV[Dap][Ala(cPent)]-X3) yielded an IC50 of 57 nM and a Ki of 9 nM. At Protein ENL [2], this compound yielded an IC50 of 504 nM and a Ki of 119 nM.
Regarding `CC(C)C[C@H](NC(=O)[C@@H]1CCCN1C(=O)[C@H](CC1CCCC1)NC(=O)[C@H](CN)NC(=O)[C@@H](NC(=O)[C@@H]1CCCN1C(=O)[C@H](CC(C)C)NC(=O)CCCCCNC(=O)CCCC[C@@H]1SC[C@H]2NC(=O)N[C@@H]12)C(C)C)C(=O)N(C)C` ({Biotinyl(3aR,4S,6aS)-Ahx}-LPV[Dap][Ala(cPent)]PL-NMe2), the Kd was 57 nM on Protein ENL [3] and 15 nM at Protein AF-9 [4]. Besides, the Ki on Protein AF-9 [1] worked out at 10 nM; on Protein ENL [2], 63 nM.
Take `CC(C)CCC(=O)N1CCC[C@H]1C(=O)N[C@H](C(=O)N[C@@H](CN)C(=O)N[C@@H](CC1CCCC1)C(=O)N1CCC[C@H]1c1nc(-c2ccccc2)cn1CC1CCCCC1)C(C)C` ({Pentanoyl(4-Me)}-PV[Dap][Ala(cPent)]-X3): at Protein AF-9 [1], the IC50 was found to be 149 nM and the Ki was found to be 23 nM. For the same compound, on Protein ENL [2], the IC50 was 237 nM and the affinity, expressed as Ki, was 56 nM.
The matching figures for Ac-LPISIPL-NH2: 1040 nM, 160 nM, 10300 nM and 3370 nM.
Turning to Ac-LPISIPLSTV-NH2, on Protein AF-9 [1], the IC50 was 140 nM and the Ki was found to be 20 nM. At Protein ENL [2], this compound registered an IC50 of 630 nM and a Ki of 150 nM.
At Protein AF-9 [1], Ac-LPVSIPL-NH2 yielded an IC50 of 1020 nM and a Ki of 160 nM. For the same compound, at Protein ENL [2], the IC50 came to 4790 nM and the affinity, expressed as Ki, was 1430 nM.

The term IC50 denotes the concentration at which inhibition is half-maximal. The term Ki denotes the dissociation constant of the complex between target and ligand, obtained from inhibition or displacement. A low value points to higher affinity. Usually Kd stands for the constant that tells how readily two partners part at equilibrium. High values mean a looser complex, low ones a tighter complex.
